# Assay results published in the NIST ThermoML archive (doi:10.1021/je100341q).
# ± gives the expanded uncertainty stated by the source.
# What was measured:
# [1] = for mass density: 293.15 K, 101.33 kPa, Liquid, Pycnometric method; for Normal melting temperature: Crystal, DTA
# [2] = refractive index (Na D-line) (dimensionless); conditions: 293.15 K; 101.33 kPa; Liquid; Standard Abbe refractometry
# [3] = Molar enthalpy of transition or fusion; conditions: Crystal; DSC
mass density [1] [kg/m3],refractive index [2],Normal melting temperature [1] [°C],Molar enthalpy of transition or fusion [3] [kcal/mol],Compound
,,130.67 ± 0.5,6.14 ± 0.186,COc1ccc(P(c2ccc(OC)cc2)c2ccc(OC)cc2)cc1 [tris(4-methoxyphenyl)phosphane]
792 ± 1,1.3301 ± 0.0007,,,CO [methanol]
1484 ± 2,1.4476 ± 0.0007,,,ClC(Cl)Cl [trichloromethane]
779 ± 1,1.4266 ± 0.0007,,,C1CCCCC1 [cyclohexane]
783 ± 1,1.343 ± 0.0007,,,CC#N [acetonitrile]
1321 ± 1,1.4237 ± 0.0007,,,ClCCl [dichloromethane]
879 ± 1,1.5011 ± 0.0007,,,c1ccccc1 [benzene]
,,144.69 ± 0.5,6.82 ± 0.194,COc1ccc(P(=O)(c2ccc(OC)cc2)c2ccc(OC)cc2)cc1 [tris(4-methoxyphenyl)phosphine oxide]
,,310.57 ± 0.5,5.37 ± 0.17,O=P1(O)OCC2(CO1)COP(=O)(O)OC2 (stereo not given)
,,140.2 ± 0.5,6.49 ± 0.196,O=P(O)(CO)c1ccccc1 [(hydroxymethyl)(phenyl)phosphinic acid]
929 ± 1,1.4065 ± 0.0007,,,CCOCCO [2-ethoxyethan-1-ol]
,1.405 ± 0.0008,,,C1CCOC1 [tetrahydrofuran]
1049 ± 1,1.3716 ± 0.0007,,,CC(=O)O [acetic acid]
790 ± 1,1.366 ± 0.0007,,,CCO [ethanol]
1034 ± 1,1.4175 ± 0.0008,,,"C1COCCO1 [1,4-dioxane]"
899 ± 1,1.3719 ± 0.0007,,,CCOC(C)=O [ethyl acetate]

Compound,mass density [1] [kg/m3],refractive index [2],Normal melting temperature [1] [°C],Molar enthalpy of transition or fusion [3] [kcal/mol]
c1ccncc1 [pyridine],983 ± 1,1.5095 ± 0.0007,,
CC(C)=O [acetone],790 ± 1,1.359 ± 0.0007,,
O=C(O)CCP(=O)(O)c1ccccc1 [3-(hydroxy(phenyl)phosphoryl)propanoic acid],,,159.51 ± 0.5,8.03 ± 0.232
O=P1(Oc2ccccc2)OCC2(CO1)COP(=O)(Oc1ccccc1)OC2 (stereo not given),,,196.43 ± 0.5,8.71 ± 0.239
CCC(C)=O [butanone],805 ± 1,1.3788,,
Cc1ccccc1 [toluene],866 ± 1,1.4967 ± 0.0007,,
CCOCC [diethyl ether],714 ± 1,1.3497 ± 0.0007,,
